Experimental data as given in ChEMBL document CHEMBL4402545, “Subtype Selective γ-Aminobutyric Acid Type A Receptor (GABAAR) Modulators Acting at the Benzodiazepine Binding Site: An Update” (J Med Chem, 2020).
pKi: −log10 of the molar value. Values belong to the compound of their own block, whether it stands above or below them.

Tests used:
Homo sapiens [1] = assay: In vivo receptor occupancy GABAA receptor in human assessed as cerebellum concentration causing reduction in [11C]flumazenil receptor labeling at 20 mg by PET method relative to control; format: functional
Rattus norvegicus [2] = assay: In vivo receptor occupancy at GABAA receptor in sc dosed rat brain; format: functional
Homo sapiens [3] = assay: In vivo receptor occupancy GABAA receptor in human assessed as occipital cortex concentration causing reduction in [11C]flumazenil receptor labeling at 20 mg by PET method relative to control; format: functional
[4] = molecular target: T1, GABA-A receptor; alpha-3/beta-3/gamma-2 (Homo sapiens, UniProt P18507+P28472+P34903); assay: Displacement of [3H]-Ro15-1788 from human GABAA alpha3beta3gamma2 expressed in HEK293 cell membranes incubated for 40 or 90 mins by liquid scintillation counting method
T1 sequence (P18507 whole entry): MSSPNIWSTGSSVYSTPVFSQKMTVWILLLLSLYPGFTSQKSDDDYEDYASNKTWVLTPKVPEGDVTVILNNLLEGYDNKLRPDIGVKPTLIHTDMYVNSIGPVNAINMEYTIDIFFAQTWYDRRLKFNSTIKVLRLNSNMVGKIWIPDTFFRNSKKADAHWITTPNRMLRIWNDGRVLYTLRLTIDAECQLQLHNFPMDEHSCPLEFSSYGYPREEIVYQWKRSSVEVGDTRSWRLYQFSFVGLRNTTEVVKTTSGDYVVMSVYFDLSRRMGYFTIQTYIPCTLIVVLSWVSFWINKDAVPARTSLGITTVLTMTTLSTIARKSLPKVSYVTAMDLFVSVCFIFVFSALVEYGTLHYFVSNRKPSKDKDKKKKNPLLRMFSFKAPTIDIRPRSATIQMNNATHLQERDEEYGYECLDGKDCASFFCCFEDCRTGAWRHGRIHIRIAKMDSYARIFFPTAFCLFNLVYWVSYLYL
T1 sequence (P28472 whole entry): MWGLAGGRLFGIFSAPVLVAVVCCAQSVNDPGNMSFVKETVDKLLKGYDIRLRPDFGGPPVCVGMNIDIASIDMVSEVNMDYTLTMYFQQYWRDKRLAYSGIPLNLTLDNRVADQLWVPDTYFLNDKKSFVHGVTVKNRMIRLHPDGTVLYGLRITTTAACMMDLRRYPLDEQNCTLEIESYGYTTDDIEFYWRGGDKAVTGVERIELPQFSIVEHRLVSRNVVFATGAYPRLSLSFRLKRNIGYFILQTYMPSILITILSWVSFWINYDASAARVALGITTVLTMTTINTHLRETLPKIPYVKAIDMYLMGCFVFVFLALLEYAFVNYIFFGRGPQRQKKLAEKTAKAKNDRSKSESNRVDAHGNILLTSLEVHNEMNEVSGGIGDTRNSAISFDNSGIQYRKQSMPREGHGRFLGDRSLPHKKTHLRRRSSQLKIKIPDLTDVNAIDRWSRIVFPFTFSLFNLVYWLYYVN
T1 sequence (P34903 whole entry): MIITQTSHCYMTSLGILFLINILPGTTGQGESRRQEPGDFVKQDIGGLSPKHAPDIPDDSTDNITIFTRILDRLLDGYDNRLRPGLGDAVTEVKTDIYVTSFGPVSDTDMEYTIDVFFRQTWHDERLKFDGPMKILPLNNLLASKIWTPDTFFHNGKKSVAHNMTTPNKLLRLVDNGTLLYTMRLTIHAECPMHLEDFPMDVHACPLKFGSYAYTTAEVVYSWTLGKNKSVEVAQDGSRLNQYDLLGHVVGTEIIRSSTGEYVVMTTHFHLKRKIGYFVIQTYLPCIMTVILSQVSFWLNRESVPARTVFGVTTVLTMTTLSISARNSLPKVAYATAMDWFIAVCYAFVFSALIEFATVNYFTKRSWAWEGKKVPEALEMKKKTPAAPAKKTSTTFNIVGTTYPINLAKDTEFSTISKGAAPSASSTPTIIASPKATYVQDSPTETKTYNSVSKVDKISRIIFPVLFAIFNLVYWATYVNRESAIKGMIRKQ

[5] = molecular target: T2, Gamma-aminobutyric acid receptor subunit alpha-2 (Homo sapiens) (UniProt P47869); assay: Binding affinity to GABA-A alpha2 (unknown origin) assessed as increase in induced current relative to control
T2 sequence (whole entry): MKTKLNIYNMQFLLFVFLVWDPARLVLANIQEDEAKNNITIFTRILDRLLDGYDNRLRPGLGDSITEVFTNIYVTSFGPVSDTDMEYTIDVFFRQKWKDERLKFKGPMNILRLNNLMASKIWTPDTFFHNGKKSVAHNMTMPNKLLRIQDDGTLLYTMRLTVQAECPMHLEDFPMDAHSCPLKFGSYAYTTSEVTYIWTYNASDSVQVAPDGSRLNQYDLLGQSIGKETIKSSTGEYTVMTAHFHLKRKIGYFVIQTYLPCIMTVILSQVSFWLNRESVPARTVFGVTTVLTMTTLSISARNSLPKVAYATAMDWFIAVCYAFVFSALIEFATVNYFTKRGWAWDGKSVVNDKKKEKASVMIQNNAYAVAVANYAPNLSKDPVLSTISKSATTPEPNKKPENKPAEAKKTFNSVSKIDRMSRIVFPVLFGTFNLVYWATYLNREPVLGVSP

[6] = molecular target: T3, Gamma-aminobutyric acid receptor subunit alpha-3 (Homo sapiens) (UniProt P34903); assay: Binding affinity to GABA-A alpha3 (unknown origin) assessed as increase in induced current relative to control
T3 sequence (whole entry): T1 sequence (P34903 whole entry)

[7] = molecular target: T4, Gamma-aminobutyric acid receptor subunit alpha-1 (Homo sapiens) (UniProt P14867); assay: Binding affinity to GABA-A alpha1 (unknown origin) assessed as increase in induced current relative to control
T4 sequence (whole entry): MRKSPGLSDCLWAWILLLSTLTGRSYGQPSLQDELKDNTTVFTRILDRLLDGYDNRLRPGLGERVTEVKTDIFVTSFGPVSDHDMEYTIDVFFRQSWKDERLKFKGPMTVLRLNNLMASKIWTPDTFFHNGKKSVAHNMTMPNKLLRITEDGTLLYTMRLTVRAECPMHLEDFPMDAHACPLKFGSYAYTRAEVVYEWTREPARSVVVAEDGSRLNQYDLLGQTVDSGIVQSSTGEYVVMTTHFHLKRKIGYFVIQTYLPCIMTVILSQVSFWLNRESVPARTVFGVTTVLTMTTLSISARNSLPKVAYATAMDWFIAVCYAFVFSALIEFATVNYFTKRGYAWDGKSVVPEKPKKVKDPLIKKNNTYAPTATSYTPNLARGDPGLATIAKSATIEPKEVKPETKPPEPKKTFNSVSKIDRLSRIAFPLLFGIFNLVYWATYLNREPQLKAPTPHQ

[8] = molecular target: T5, GABA-A receptor; alpha-5/beta-3/gamma-2 (Homo sapiens, UniProt P18507+P28472+P31644); assay: Displacement of [3H]-Ro15-1788 from human GABAA alpha5beta3gamma2 expressed in HEK293 cell membranes incubated for 40 or 90 mins by liquid scintillation counting method
T5 sequence (P18507 whole entry): T1 sequence (P18507 whole entry)
T5 sequence (P28472 whole entry): T1 sequence (P28472 whole entry)
T5 sequence (P31644 whole entry): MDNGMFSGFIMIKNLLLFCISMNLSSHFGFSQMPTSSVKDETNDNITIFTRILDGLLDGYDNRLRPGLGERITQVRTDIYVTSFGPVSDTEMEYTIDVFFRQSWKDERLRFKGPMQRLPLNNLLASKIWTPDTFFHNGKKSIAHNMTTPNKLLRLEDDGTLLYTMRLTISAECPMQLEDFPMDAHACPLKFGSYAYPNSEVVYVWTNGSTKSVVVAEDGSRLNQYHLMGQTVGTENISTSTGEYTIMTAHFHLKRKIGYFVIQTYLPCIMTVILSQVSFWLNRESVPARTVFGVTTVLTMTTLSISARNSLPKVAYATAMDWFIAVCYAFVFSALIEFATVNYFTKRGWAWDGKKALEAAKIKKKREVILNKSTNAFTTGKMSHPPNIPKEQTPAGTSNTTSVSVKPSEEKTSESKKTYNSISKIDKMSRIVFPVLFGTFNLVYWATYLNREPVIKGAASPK

Rattus norvegicus [9] = assay: In vivo receptor occupancy at GABAA receptor in po dosed Wistar rat brain assessed as brain concentration causing reduction in [3H]Flunitrazepam receptor labeling by scintillation counting method; format: functional
[10] = molecular target: T6, Gamma-aminobutyric acid receptor subunit alpha-5 (Homo sapiens) (UniProt P31644); assay: Binding affinity to GABA-A alpha5 (unknown origin) assessed as increase in induced current relative to control
T6 sequence (whole entry): T5 sequence (P31644 whole entry)

[11] = Displacement of [3H]-Ro15-1788 from human GABAA alpha2beta3gamma2 expressed in HEK293 cell membranes incubated for 40 or 90 mins by liquid scintillation counting method
[12] = molecular target: T7, GABA-A receptor; alpha-1/beta-3/gamma-2 (Homo sapiens, UniProt P14867+P18507+P28472); assay: Displacement of [3H]-Ro15-1788 from human GABAA alpha1beta3gamma2 expressed in HEK293 cell membranes incubated for 40 or 90 mins by liquid scintillation counting method
T7 sequence (P14867 whole entry): T4 sequence (whole entry)
T7 sequence (P18507 whole entry): T1 sequence (P18507 whole entry)
T7 sequence (P28472 whole entry): T1 sequence (P28472 whole entry)

[13] = molecular target: T4, Gamma-aminobutyric acid receptor subunit alpha-1 (Homo sapiens); assay: Negative allosteric modulation of GABA-A alpha1 (unknown origin) assessed as reduction in DMCM induced current relative to control
[14] = molecular target: T8, Gamma-aminobutyric acid receptor subunit alpha-1 (Homo sapiens, UniProt P14867); assay: Binding affinity to GABA-A alpha1 (unknown origin)
T8 sequence (P14867 whole entry): T4 sequence (whole entry)

Rattus norvegicus [15] = assay: In vivo receptor occupancy at GABAA receptor in po dosed Crl:CD Sprague-Dawley rat assessed as brain concentration causing 50% reduction in [3H]-Ro15-4513 receptor labeling after 1 hr; format: functional
[16] = molecular target: T2, Gamma-aminobutyric acid receptor subunit alpha-2 (Homo sapiens); assay: Binding affinity to GABA-A alpha2 (unknown origin) assessed as reduction in DMCM induced current relative to control
[17] = molecular target: T3, Gamma-aminobutyric acid receptor subunit alpha-3 (Homo sapiens); assay: Binding affinity to GABA-A alpha3 (unknown origin) assessed as reduction in DMCM induced current relative to control
[18] = molecular target: T9, Gamma-aminobutyric acid receptor subunit alpha-3 (Homo sapiens, UniProt P34903); assay: Binding affinity to GABA-A alpha3 (unknown origin)
T9 sequence (P34903 whole entry): T1 sequence (P34903 whole entry)

[19] = molecular target: T10, Gamma-aminobutyric acid receptor subunit alpha-2 (Homo sapiens, UniProt P47869); assay: Binding affinity to GABA-A alpha2 (unknown origin)
T10 sequence (P47869 whole entry): T2 sequence (whole entry)

Structure (SMILES): CCCNC(=O)c1nnc2c(-c3c(F)cccc3OC)cccc2c1N [AZD7325]
Occ (Homo sapiens [1]): 83%
Occ50 (Rattus norvegicus [2]): 1 to 2 µM/g
Occ (Homo sapiens [3]): 83%

pKi [4]: 9.30
fold change (FC) [5]: 0.26
fold change (FC) [6]: 0.52
fold change (FC) [7]: 0.08
pKi [8]: 9.92
fold change (FC) [10]: 0.78
pKi [12]: 9.39
Structure (SMILES): CC(C)(O)c1ccc2c(c1)ncn2-c1cccc(-c2ccccc2C#N)c1
Occ50 (Rattus norvegicus [9]): 0.69 mg/kg
pKi [11]: 9.08

Efficacy [13]: 0%
pKi [14]: 6.85
Efficacy [16]: 0%
Efficacy [17]: 0%
pKi [18]: 7.62
pKi [19]: 7.49
Structure (SMILES): Cc1c(F)c(Nc2ccc(-c3cn(C)cn3)cn2)cc2c1ncn2CC1CC1
Occ50 (Rattus norvegicus [15]): 1.9 mg/kg
